{"source": "patent US20190365776A1", "about": "“THERAPEUTIC AGENT FOR OCULAR FUNDUS DISEASE” (KYUSHU UNIVERSITY, NATIONAL UNIVERSITY CORPORATION, priority 2013, published 2019)", "key": {"[1]": {"tested_on": "mice OIR (Oxygen-Induced Retinopathy) model", "assay": "Mice OIR model, fluorescein fundus angiography", "type": "in vivo, C57BL/6JJcl mice", "conditions": "0.8% solution, ocular instillation three times a day, day 17 after birth", "text": "C57BL/6JJcl mice born on the same day were reared in a 75%-oxygen environment from day 7 after birth, and were then transferred to a normal indoor environment on day 12 after birth to start administration by ocular instillation. Test groups were a saline instillation group (control), a 0.4% compound 1 solution instillation group, a 0.8% compound 1 solution instillation group, and a 0.4% fasudil solution instillation group, and saline, the compound 1 solution, or the fasudil solution was administered by ocular instillation three times a day. On day 17 after birth, ischemic retinal areas (non-perfused areas) and neovascular areas were quantified for evaluation by flat-mounting or fluorescein fundus angiography. More specifically, 1 g/kg of pentobarbital (Nembutal) was administered intraperitoneally for euthanasia under deep anesthesia, and then both eyeballs were excised and fixed with 4% paraformaldehyde (PFA) at 37° C. for 1 hour, and the corneal limbus was circumferentially incised to remove the cornea and iris from the eyeball. […] Then, the image of the flat-mounted retina was taken with a fluorescence microscope (BZ-9000, KEYENCE Corp, Osaka, Japan), and the proportion of the non-perfused area to the entire retina and the proportion of the neovascular area to the entire retina were calculated by the following formulas in NIH image J software. […]"}, "[2]": {"tested_on": "b-END3 (bEND.3) mouse brain microvascular endothelial cells", "assay": "Tight junction test: F-Actin immunostaining in b-END3 cells", "type": "cell-based", "conditions": "pretreatment 3 μM or 30 μM, 3 hours; VEGF 25 ng/mL or IL-6 10 ng/mL, 24 hours", "protocol": "(§1) According to a conventional method, b-END3 (bEND.3: ATCC CRL-2299™) cells, which are mouse brain microvascular endothelial cells, were subcultured in 3.5 cm dishes (9×10^5 cells/dish), and a test was started from day 6 after subculture. […]\n(§2) The cells after the test were subjected to immunostaining according to the following procedure to evaluate the expression of Claudin-5 or F-Actin. […] Then, a cover glass-sized cell sample was prepared by trimming with a cotton swab, enclosed with a Dako pen, blocked with 10% normal goat serum (10% normal goat serum ready-to-use (Invitrogen)) (30 min, ordinary temperature), and allowed to stand at 4° C. overnight. […]"}, "[3]": {"tested_on": "b-END3 (bEND.3) mouse brain microvascular endothelial cells", "assay": "Tight junction test: Claudin-5 immunostaining in b-END3 cells", "type": "cell-based", "conditions": "pretreatment 3 μM or 30 μM, 3 hours; VEGF 25 ng/mL or IL-6 10 ng/mL, 24 hours", "protocol": "as §1, §2"}}, "data": [{"compound": "C[C@H]1CNCCCN1S(=O)(=O)c1cccc2cncc(F)c12", "note": "[compound 1, (S)-(−)-1-(4-fluoro-5-isoquinolinesulfonyl)-2-methyl-1,4-homopiperazine]", "values": [{"measurement": "relative value of the neovascular area (saline instillation group = 100%)", "setting": "[1]", "result": 41.6, "unit": "%"}, {"measurement": "F-Actin polymerization caused by VEGF stimulation or IL-6 stimulation", "setting": "[2]", "result": "suppression of F-Actin polymerization"}, {"measurement": "Claudin-5 expression decreased by VEGF stimulation or IL-6 stimulation", "setting": "[3]", "result": "improvement in Claudin-5 expression"}]}]}
